The target in assay [1] is Ba/F3 HER2 A775_G776insYVMA cells (Homo sapiens, UniProt P04626, DUP772-775, cells depend on it). Description: Inhibition of cell proliferation, CTG method, Ba/F3 HER2 A775_G776insYVMA. In kind it is cell-based. The settings on record: 72 hours, read-out: Ba/F3 HER2 A775-G776insYVMA IC50. An outline of the steps: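 Ba/F3 HER2 A775_G776insYVMA cells in RPMI1640 with 10% FBS were plated at 3000 cells/well and treated directly with compound (top 10 μM, 4-fold, 9 concentrations, duplicates).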
Chain of Ba/F3 HER2 A775_G776insYVMA cells (P04626 with tags, fused parts or gaps DUP772-775): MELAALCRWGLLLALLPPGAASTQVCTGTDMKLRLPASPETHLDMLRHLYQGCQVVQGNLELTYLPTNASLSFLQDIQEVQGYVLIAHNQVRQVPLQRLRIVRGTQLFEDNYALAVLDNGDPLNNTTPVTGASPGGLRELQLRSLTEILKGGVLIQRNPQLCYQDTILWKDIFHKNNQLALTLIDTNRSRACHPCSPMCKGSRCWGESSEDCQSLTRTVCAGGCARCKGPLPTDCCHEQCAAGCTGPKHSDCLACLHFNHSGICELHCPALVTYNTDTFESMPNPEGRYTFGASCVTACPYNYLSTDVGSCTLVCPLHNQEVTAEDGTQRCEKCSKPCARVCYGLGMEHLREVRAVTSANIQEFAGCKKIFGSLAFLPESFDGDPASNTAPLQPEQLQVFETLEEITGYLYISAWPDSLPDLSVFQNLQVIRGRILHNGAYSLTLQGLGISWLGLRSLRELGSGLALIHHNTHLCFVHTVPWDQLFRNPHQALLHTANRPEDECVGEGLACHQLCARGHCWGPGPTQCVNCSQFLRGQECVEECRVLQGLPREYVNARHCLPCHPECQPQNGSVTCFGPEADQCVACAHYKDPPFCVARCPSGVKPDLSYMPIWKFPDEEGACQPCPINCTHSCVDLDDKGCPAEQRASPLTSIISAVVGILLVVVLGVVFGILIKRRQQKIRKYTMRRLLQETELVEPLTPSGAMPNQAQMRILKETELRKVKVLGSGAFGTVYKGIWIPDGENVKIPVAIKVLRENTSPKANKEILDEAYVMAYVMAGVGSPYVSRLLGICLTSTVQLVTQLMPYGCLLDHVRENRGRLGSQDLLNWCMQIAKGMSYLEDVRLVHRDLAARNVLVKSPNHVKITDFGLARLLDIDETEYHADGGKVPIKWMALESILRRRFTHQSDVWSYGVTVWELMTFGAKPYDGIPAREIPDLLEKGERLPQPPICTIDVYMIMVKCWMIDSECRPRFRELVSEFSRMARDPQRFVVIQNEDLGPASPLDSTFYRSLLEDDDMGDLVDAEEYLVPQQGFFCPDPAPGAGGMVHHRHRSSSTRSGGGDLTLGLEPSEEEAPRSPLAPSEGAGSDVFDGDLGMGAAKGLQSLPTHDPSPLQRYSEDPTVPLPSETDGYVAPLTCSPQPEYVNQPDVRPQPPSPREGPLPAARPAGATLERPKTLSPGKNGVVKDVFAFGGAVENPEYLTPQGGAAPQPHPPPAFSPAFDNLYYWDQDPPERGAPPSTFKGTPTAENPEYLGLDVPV

The next assay deals with EGFR^WT kinase (Homo sapiens, UniProt P00533). Description: EGFR^WT kinase assay (ULight/PT66 TR-FRET). The class given is biochemical. In a few lines:
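Enzyme preincubated 5 min with compound (11-point 3-fold series, duplicate), then ULight-JAK-1 (Tyr1023) peptide and ATP added at 4× stocks of 400 nM and 600 μM; 120 min reaction at room temperature. PT66 antibody TR-FRET read after 60 min; IC50 fitted from inhibition rates.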
(TR-FRET usually uses a lanthanide donor and a delayed reading to cut background.)

The next assay concerns the target T1, HER2 kinase (Homo sapiens, UniProt P04626).
T1 construct: purchased Carna Biosciences 08-016
Description: HER2 kinase assay (ULight/PT66 TR-FRET). In kind it is biochemical. An outline of the steps:
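HER2 kinase preincubated 5 min with compounds (11-point 3-fold series, duplicates), then reacted 120 min at room temperature with ATP and ULight-poly GT peptide, each prepared at 4× working concentration (40 μM ATP, 400 nM substrate, 40 nM kinase). PT66 antibody added for 60 min, TR-FRET read; IC50 from inhibition curves.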

Another assay deals with NCI-N87 cells. In words: Inhibition of cell proliferation, CTG method, NCI-N87. The class given is cell-based. Particulars: Homo sapiens, 72 hours, read-out: hNCI-N87 IC50. From the text:
(§1) The present application examined the in vitro anti-proliferative activity of the compounds of the present disclosure against in vitro cultured BT474, NCI-N87, Ba/F3-EGFR-VIII and Ba/F3 HER2 A775_G776insYVMA and Ba/F3 EGFR D770_N771insSVD cell lines by CTG method.
(§2) Reagents and consumables: RPMI1640 (ThermoFisher, Cat. No. C11875500BT); fetal bovine serum (Hyclone, Cat. No. SV30087.03); 0.25% trypsin-EDTA (ThermoFisher, Cat. No. 25200-072); penicillin-streptomycin (Hyclone, Cat. No. SV30010); DMSO (Amresco, Cat. No. 0231-500ML); CTG assay kit (Promega, Cat. No. G924C); 96-well plate (Corning, Cat. No. 3603); multifunctional plate reader (Perkin Elmer, Cat. No. Envision)
(§3) Cell lines: BT474 (from the cell bank of Chinese Academy of Sciences), NCI-N87 (from ATCC), Ba/F3-EGFR-VIII, Ba/F3 HER2 A775_G776insYVMA and Ba/F3 EGFR D770_N771insSVD (all from KYinno Biotechnology (Beijing) Co., Ltd.); all of the above cells were cultured with RPMI1640 medium containing 10% fetal bovine serum, 100 U/mL penicillin, and 100 μg/mL streptomycin in the culture process.
(§4) 1. The assay compound was dissolved with DMSO to form a stock solution and a gradient dilution was performed, followed by dilution with the corresponding medium to obtain a solution with 5-fold working concentration.
(§5) 2. Cells in logarithmic growth phase were adjusted to specific cell densities by dilution with culture medium, and 80 μL of cell suspension was added to a 96-well plate, such that plating densities of cells of BT474, NCI-N87, Ba/F3-EGFR-VIII, Ba/F3 HER2 A775_G776insYVMA and Ba/F3 EGFR D770_N771insSVD were all 3000 cells/well. The cells of Ba/F3-EGFR-VIII, Ba/F3 HER2 A775_G776insYVMA and Ba/F3 EGFR D770_N771insSVD were used directly in the next step (treatment with compound), whereas the BT474 and NCI-N87 needed to be cultured overnight in a 37° C., 5% carbon dioxide gas incubator to adhere to the wall, and then treated with compounds.
(§6) 3. 20 μL of compound solution was added to each well of the 96-well plate that had been inoculated with cells. The highest concentration of the assayed compound was 10 μM, 4-fold serial dilution, a total of 9 concentrations, and duplicate wells. A control group without compound was also set up.
(§7) 4. The cells were cultured for another 72 hours, and then cell viability was detected by CTG assay kit. Signal values were read with a multifunctional plate reader (Perkin Elmer). GraphPad Prism software was used to create a dose-response curve and IC50 was calculated.

The target in the next assay is Ba/F3-EGFR-VIII cells (Homo sapiens, UniProt P00533, DELINS30-297G, cells depend on it). Description: Inhibition of cell proliferation, CTG method, Ba/F3-EGFR-VIII. The class given is cell-based. The settings on record: 72 hours, read-out: Ba/F3 EGFRvIII IC50.
Excerpt: as §1, §2, §3
1. […]
as §7

Assay [2] addresses Ba/F3 EGFR D770_N771insSVD cells (Homo sapiens, UniProt P00533, DUP768-770, cells depend on it). In words: Inhibition of cell proliferation, CTG method, Ba/F3 EGFR D770_N771insSVD. In kind it is cell-based. The settings on record: 72 hours, read-out: Ba/F3 EGFR D770_N771insSVD IC50.
Excerpt: as §1, §2, §3, §4, §5, §6, §7

A further assay concerns BT474 cells. In words: Inhibition of cell proliferation, CTG method, BT474. The class given is cell-based. Particulars: Homo sapiens, BT-474, 72 hours, read-out: hBT474 IC50.
Excerpt: as §1, §2, §3
1. […]
as §7

For assay [3], the system named is Ba/F3 ERBB2 A775_G776insYVMA. In words: Efficacy in nude mouse tumor-bearing model of Ba/F3 ERBB2 A775_G776insYVMA. In kind it is in vivo, BALB/c nude mice. Particulars: 30 mg/kg, QD×15, PO; day 15. Here is the method: In this assay, some compounds of the application were orally administered to a nude mouse tumor-bearing model of Ba/F3 ERBB2 A775_G776insYVMA to study the effect of the compounds of the application on tumor growth.
Preparation of the assay compound: an appropriate weight of the compound to be assayed was weighed, and completely dissolved in an appropriate volume of vehicle (DMSO). The mixture was vortexed or sonicated. Then an appropriate amount of Solutol was added and mixed well. Finally, sterilized drinking water was added and the mixture was mixed by stirring or vortexing to obtain a homogeneous solution or suspension.
Method: All the assays were authorized and agreed by the Animal Welfare Committee. Ba/F3 ERBB2 A775_G776insYVMA in a logarithmic growth period was inoculated subcutaneously into the right back of immunodeficient nude mice (BALB/c nude, female, 6-7 weeks of age, body weight 18±2 g) with 4×10^6 cells/rat. After the tumor grew to 150-200 mm^3, the animals were randomly divided into a treatment group and a control group. For the treatment group, a solution of each assay compound was given, and for the control group, a vehicle solution without the assay compound was given. Both of the treatment group and the control group were administered once a day for about 2 weeks. The dose of each assay article was 30 mg/kg (in terms of effective compound concentration), and the assay compounds were all prepared freshly for use. During the assay, the diameter of loaded tumors was measured twice a week, and the mice were weighed at the same time. The tumor volume (TV) was calculated by the formula: TV=½×a×b^2, where a and b denote length and width, respectively. Relative tumor volume (RTV) was calculated based on the measured results by the formula: RTV=Vt/V0, where V0 is the tumor volume measured at grouping and administration and Vt is the tumor volume at each measurement. The evaluation index of antitumor activity was the relative tumor proliferation rate T/C (%) calculated by the formula: T/C (%)=(TRTV/CRTV)×100%, TRTV: RTV of the administration group; CRTV: RTV of the control group. T and C denote the average tumor volume at a certain time point in the administration group and the control group, respectively.

Chain of Ba/F3 EGFR D770_N771insSVD cells (P00533 with tags, fused parts or gaps DUP768-770): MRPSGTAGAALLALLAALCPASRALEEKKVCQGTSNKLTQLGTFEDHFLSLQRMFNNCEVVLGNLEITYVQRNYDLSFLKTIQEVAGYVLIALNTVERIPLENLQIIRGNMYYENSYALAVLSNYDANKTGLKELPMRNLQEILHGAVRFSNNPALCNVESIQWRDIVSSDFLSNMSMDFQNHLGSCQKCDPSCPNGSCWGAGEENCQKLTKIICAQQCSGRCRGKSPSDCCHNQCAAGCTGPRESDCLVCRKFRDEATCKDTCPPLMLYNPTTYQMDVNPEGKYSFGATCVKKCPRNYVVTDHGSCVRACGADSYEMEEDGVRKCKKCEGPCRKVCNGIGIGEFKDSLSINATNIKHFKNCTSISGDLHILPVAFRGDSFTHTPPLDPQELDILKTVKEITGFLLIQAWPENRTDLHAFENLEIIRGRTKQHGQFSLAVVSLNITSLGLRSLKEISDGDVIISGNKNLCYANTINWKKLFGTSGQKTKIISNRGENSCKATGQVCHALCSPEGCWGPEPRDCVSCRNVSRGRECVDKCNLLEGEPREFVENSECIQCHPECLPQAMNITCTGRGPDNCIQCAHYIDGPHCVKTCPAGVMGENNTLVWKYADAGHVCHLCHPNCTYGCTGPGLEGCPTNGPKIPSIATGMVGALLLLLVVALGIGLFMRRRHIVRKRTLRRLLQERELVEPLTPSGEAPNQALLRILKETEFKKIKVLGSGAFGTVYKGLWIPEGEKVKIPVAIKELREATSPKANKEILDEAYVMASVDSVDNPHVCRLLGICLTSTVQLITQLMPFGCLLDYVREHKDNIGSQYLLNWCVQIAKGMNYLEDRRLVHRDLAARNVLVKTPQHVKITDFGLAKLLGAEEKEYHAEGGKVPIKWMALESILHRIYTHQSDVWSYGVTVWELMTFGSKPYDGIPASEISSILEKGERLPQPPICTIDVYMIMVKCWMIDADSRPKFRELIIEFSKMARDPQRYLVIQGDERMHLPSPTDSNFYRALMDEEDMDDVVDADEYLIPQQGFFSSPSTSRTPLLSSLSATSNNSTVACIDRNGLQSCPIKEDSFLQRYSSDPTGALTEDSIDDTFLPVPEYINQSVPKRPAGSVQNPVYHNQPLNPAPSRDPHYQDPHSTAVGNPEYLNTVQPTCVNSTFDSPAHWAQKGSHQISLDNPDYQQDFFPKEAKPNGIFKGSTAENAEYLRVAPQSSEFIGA
Chain of EGFR^WT kinase (P00533 25-1210): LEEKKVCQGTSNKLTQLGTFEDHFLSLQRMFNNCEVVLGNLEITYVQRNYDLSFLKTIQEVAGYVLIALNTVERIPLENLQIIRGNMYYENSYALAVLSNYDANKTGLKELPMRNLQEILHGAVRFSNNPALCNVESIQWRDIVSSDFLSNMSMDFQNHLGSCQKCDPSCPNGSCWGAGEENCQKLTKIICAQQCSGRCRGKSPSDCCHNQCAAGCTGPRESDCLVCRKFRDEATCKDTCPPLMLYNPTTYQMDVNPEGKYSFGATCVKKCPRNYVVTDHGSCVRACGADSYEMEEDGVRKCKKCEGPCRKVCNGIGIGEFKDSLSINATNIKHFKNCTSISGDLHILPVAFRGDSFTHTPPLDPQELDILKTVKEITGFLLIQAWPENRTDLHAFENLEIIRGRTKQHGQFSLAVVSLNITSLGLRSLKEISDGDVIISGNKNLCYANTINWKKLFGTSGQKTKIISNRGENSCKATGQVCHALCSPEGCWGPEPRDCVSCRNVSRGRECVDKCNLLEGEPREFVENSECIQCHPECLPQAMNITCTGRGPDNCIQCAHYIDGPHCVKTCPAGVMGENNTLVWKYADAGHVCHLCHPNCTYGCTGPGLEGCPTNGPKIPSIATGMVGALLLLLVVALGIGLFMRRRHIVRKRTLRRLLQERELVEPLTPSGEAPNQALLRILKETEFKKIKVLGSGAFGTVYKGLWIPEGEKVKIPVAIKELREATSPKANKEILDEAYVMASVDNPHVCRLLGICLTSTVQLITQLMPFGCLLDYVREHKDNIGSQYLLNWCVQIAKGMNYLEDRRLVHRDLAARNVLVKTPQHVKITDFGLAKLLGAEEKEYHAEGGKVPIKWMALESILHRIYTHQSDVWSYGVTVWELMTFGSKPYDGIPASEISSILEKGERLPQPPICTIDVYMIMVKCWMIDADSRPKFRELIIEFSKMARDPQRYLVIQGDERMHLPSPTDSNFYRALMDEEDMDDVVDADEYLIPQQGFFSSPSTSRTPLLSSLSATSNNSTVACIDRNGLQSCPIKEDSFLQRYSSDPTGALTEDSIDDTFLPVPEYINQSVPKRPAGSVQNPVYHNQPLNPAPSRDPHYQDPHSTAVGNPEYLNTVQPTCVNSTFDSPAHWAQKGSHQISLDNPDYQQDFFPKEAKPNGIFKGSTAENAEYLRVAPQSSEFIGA
T1 sequence (P04626 23-1255): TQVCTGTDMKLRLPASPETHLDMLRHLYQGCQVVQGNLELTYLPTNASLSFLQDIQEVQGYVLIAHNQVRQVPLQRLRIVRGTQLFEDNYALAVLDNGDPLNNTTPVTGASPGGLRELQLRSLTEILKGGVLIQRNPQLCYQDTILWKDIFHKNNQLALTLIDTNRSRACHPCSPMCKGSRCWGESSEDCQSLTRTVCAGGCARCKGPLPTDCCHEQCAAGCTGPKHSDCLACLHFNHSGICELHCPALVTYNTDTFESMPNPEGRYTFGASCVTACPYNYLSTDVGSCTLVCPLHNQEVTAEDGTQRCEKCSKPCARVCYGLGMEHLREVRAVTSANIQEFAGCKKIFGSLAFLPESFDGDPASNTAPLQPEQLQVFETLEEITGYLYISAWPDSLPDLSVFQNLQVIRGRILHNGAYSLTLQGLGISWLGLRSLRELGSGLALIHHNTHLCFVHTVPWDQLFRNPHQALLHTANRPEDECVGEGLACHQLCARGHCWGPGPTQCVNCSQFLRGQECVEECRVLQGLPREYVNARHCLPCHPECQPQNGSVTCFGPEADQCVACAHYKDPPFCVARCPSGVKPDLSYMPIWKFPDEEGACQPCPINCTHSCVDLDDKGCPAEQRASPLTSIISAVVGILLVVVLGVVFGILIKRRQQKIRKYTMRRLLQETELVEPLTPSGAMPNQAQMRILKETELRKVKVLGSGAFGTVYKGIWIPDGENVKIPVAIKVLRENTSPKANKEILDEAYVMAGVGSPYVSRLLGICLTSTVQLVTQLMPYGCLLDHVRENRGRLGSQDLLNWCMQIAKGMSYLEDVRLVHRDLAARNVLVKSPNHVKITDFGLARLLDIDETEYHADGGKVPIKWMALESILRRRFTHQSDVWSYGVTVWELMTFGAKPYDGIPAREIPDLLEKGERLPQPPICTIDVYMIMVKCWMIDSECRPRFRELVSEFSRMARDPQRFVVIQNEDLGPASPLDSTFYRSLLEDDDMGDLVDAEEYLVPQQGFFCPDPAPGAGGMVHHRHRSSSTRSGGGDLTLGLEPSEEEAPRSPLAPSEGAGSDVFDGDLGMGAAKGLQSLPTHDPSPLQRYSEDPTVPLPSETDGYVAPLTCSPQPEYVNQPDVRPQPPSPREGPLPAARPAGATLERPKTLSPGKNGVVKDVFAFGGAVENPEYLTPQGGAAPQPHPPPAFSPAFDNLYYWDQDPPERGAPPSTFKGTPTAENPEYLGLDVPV

`COc1c(NC(=O)/C=C/CN(C)C)ccc2ncnc(Nc3ccc(OCc4ccccn4)c(Cl)c3)c12` [Example 1, (E)-N-(4-((3-chloro-4-(pyridin-2-ylmethoxy)phenyl)amino)-5-methoxyquinazolin-6-yl)-4-(dimethylamino)but-2-enamide]: the GI50 (in assay [1]; on Ba/F3-EGFR-VIII cells) was 1 to 5 nM in each case. Moreover, the IC50 is < 10 nM against EGFR^WT kinase, < 10 nM at HER2 kinase and 1 to 5 nM with NCI-N87 cells.

`COc1c(NC(=O)/C=C/CN(C)C)ccc2ncnc(Nc3ccc(OCc4cccc(F)c4)c(Cl)c3)c12` [Example 2, (E)-N-(4-((3-chloro-4-(3-fluorobenzyloxy)phenyl)amino)-5-methoxyquinazolin-6-yl)-4-(dimethylamino)but-2-enamide]: the GI50 in assay [1] was in the range of 1 to 5 nM; in assay [2] it was 10 to 100 nM. Further, the IC50 is < 10 nM at EGFR^WT kinase, < 10 nM against HER2 kinase and 1 to 5 nM in the assay on NCI-N87 cells.

In the case of `CCOc1c(NC(=O)/C=C/[C@H]2CCCN2C)ccc2ncnc(Nc3ccc(OCc4ccccn4)c(Cl)c3)c12` [Example 5, (R,E)-N-(4-((3-chloro-4-(pyridin-2-ylmethoxy)phenyl)amino)-5-ethoxyquinazolin-6-yl)-3-(1-methylpyrrolidin-2-yl)acrylamide], in assay [1], the GI50 is < 1 nM. Moreover, the IC50 was 10 to 100 nM against EGFR^WT kinase, < 10 nM at HER2 kinase, 1 to 5 nM in the assay on NCI-N87 cells and 10 to 100 nM with BT474 cells.

On to `COCCOc1c(NC(=O)/C=C/[C@H]2CCCN2C)ccc2ncnc(Nc3ccc(OCc4ccccn4)c(Cl)c3)c12` [Example 8, (R,E)-N-(4-((3-chloro-4-(pyridin-2-ylmethoxy)phenyl)amino)-5-(2-methoxyethoxy)quinazolin-6-yl)-3-(1-methylpyrrolidin-2-yl)acrylamide], for which the GI50 in assay [1] was 1 to 5 nM; in assay [2] it was 10 to 100 nM. Further, the “T/C (%)” value in assay [3] is on record as 5.83%. The IC50 against EGFR^WT kinase and against HER2 kinase was < 10 nM in each case.

Consider `CN1CCC[C@@H]1/C=C/C(=O)Nc1ccc2ncnc(Nc3ccc(OCc4ccccn4)c(Cl)c3)c2c1OCCCF` [Example 10, (R,E)-N-(4-((3-chloro-4-(pyridin-2-ylmethoxy)phenyl)amino)-5-(3-fluoropropoxy)quinazolin-6-yl)-3-(1-methylpyrrolidin-2-yl)acrylamide], for which the GI50 in assay [1] lay in the range of 1 to 5 nM; in assay [2], 10 to 100 nM. In addition, the IC50 against EGFR^WT kinase and against HER2 kinase was < 10 nM each time.

Turning to `CN1CCC[C@@H]1/C=C/C(=O)Nc1ccc2ncnc(Nc3ccc(OCc4ccccn4)c(Cl)c3)c2c1OCC(C)(C)O` [Example 15, (R,E)-N-(4-((3-chloro-4-(pyridin-2-ylmethoxy)phenyl)amino)-5-(2-hydroxy-2-methylpropoxy)quinazolin-6-yl)-3-(1-methylpyrrolidin-2-yl)acrylamide], the figures for the GI50 in assay [1] and in assay [2] were 1 to 5 nM and 10 to 100 nM, respectively. Besides, the IC50 on EGFR^WT kinase and at HER2 kinase was < 10 nM throughout.

Consider `CN1CCC[C@@H]1/C=C/C(=O)Nc1ccc2ncnc(Nc3ccc(OCc4ccccn4)c(Cl)c3)c2c1OCCCO` [Example 17, (R,E)-N-(4-((3-chloro-4-(pyridin-2-ylmethoxy)phenyl)amino)-5-(3-hydroxypropoxy)quinazolin-6-yl)-3-(1-methylpyrrolidin-2-yl)acrylamide], for which the results for the GI50 in assay [1] and in assay [2] were 1 to 5 nM and 10 to 100 nM, respectively. For the same compound, the IC50 against EGFR^WT kinase and on HER2 kinase was < 10 nM throughout.

With `COCCN1CCC[C@@H]1/C=C/C(=O)Nc1ccc2ncnc(Nc3ccc(OCc4cccc(F)c4)c(Cl)c3)c2c1OC` [Example 26], the GI50 in assay [1] is 1 to 5 nM; in assay [2] it was 10 to 100 nM. The IC50 on EGFR^WT kinase is 10 to 100 nM; against HER2 kinase, < 10 nM.

As to `CCN1CCC[C@@H]1/C=C/C(=O)Nc1ccc2ncnc(Nc3ccc(OCc4cccc(F)c4)c(Cl)c3)c2c1OC` [Example 28, (R,E)-N-(4-((3-chloro-4-(3-fluorobenzyloxy)phenyl)amino)-5-methoxyquinazolin-6-yl)-3-(1-ethylpyrrolidin-2-yl)acrylamide], the GI50 in assay [1] fell in the range of 1 to 5 nM; in assay [2], 10 to 100 nM. The IC50 on EGFR^WT kinase and on HER2 kinase was < 10 nM in each case.

The term IC50 denotes the concentration needed to halve the response being measured.

(Values after US20240246934A1, “QUINAZOLINE-BASED COMPOUND, COMPOSITION, AND APPLICATION OF QUINAZOLINE-BASED COMPOUND” (BEIJING SCITECH-MQ PHARMACEUTICALS LIMITED, priority 2021, published 2024).)
